Experimental data: patent US20180250221A1, “GARDENIA EXTRACT FOR COLOURING THE SKIN” (PIERRE FABRE MEDICAMENT, priority 2015, published 2018)

Test system: human skin explants
Assay: Colouring effect on human skin explants under survival conditions (ex vivo model)
Type: cell-based
Conditions: 72 hours, C-Cube Dermoscope colorimetric differences, four donors
Method: Owing to the lack of cell and animal pharmacological models, the inventors developed an ex vivo model in order to overcome the difficulties related to absorption of the active agents. Indeed, there is no absorption of crocin without intestinal hydrolysis first and low assimilation of crocetin and of these derivatives after passage.
The objective of this study was to evaluate the colouring effect of various extracts applied to human skin explants under survival conditions over 72 hours. Maintenance under survival conditions is carried out in 6-well culture plates containing culture medium. These culture plates are placed in an incubator at 37° C. with 5% CO2. The studies were carried out on four donors.
The colouring of each medium containing active agents or control is evaluated with the C-Cube Dermoscope (Clinical Edition) from Pixience SAS. The evaluation concerns the maximum colouring which can be obtained, i.e., the 100% level on the colour mapping scale relating to each active agent. The colouring of each explant is measured using the C-Cube Dermoscope (Clinical Edition). First, the explant is placed in a solution of medium with no active agent in order to rinse the explant of the active agent molecules present on the explant surface and which have not penetrated the skin. […]

In the case of CC(/C=C/C=C(\C)C(=O)O)=C\C=C\C=C(C)\C=C\C=C(/C)C(=O)O [crocetin], the colouring strength is reported as “high colouring strength”.
